Test results published in PMC4516653 (European journal of pharmaceutical sciences : official …, 2015).
Several values for one entry are separate records, joined by “and”; a condition that tells them apart may be missing. Equal entries are not always repeated. Where two headings read alike, the source gives them in different places.

Columns and labels:
CYP 1A2 = target: T1, CYP 1A2 (Homo sapiens, UniProt P05177); experiment: CYP inhibition assay in human liver microsomes; assay type: in vitro ADME
T1 sequence (P05177 1-516): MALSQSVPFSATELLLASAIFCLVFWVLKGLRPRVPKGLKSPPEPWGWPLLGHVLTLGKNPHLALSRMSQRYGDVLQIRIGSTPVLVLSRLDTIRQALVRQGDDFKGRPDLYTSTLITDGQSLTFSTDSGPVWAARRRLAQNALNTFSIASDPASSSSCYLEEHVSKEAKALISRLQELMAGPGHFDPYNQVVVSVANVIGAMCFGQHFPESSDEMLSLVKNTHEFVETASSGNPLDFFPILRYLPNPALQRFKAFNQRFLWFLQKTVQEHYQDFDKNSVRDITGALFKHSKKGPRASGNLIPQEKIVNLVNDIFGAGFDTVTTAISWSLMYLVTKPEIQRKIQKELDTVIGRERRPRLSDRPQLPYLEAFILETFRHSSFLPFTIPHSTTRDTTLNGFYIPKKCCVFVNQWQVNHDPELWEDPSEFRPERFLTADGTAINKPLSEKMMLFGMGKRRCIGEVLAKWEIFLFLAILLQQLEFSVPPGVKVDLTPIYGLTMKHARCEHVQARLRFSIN

CYP 2A6 = target: T2, CYP 2A6 (Homo sapiens, UniProt P11509); experiment: CYP inhibition assay in human liver microsomes; assay type: in vitro ADME
T2 sequence (P11509 1-494): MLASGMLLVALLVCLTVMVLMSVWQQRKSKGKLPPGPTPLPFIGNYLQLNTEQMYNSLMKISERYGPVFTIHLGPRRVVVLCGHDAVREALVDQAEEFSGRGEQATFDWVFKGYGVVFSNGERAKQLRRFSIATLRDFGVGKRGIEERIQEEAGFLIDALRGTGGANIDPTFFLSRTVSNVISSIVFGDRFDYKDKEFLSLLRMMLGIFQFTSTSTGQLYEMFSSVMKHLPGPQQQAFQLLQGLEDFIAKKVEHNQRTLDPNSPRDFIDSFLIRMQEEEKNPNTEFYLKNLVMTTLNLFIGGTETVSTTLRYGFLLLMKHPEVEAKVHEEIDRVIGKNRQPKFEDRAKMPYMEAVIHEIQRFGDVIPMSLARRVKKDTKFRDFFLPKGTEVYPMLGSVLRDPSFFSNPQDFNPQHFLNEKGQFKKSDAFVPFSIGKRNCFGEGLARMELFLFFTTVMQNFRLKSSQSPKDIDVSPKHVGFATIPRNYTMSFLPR

CYP 2B6 = target: T3, CYP 2B6 (Homo sapiens, UniProt P20813); experiment: CYP inhibition assay in human liver microsomes; assay type: in vitro ADME; conditions: IC50 CYP 2B6, human liver microsomes; duplicate incubations, both values printed
T3 sequence (P20813 1-491): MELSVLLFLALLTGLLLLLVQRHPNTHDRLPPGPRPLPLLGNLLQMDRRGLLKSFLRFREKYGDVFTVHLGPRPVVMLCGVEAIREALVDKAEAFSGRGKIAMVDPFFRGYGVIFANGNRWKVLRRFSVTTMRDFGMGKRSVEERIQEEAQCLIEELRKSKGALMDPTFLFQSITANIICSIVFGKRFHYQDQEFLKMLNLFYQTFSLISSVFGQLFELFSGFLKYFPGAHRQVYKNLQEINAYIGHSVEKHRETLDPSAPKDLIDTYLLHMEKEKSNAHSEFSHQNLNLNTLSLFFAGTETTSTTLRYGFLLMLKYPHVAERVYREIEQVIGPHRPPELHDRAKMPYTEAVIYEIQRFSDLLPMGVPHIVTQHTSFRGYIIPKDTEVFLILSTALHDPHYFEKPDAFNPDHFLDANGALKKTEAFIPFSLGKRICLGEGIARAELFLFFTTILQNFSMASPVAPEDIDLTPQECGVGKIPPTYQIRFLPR

CYP 2C8 = target: T4, CYP 2C8 (Homo sapiens, UniProt P10632); experiment: CYP inhibition assay in human liver microsomes; assay type: in vitro ADME
T4 sequence (P10632 1-490): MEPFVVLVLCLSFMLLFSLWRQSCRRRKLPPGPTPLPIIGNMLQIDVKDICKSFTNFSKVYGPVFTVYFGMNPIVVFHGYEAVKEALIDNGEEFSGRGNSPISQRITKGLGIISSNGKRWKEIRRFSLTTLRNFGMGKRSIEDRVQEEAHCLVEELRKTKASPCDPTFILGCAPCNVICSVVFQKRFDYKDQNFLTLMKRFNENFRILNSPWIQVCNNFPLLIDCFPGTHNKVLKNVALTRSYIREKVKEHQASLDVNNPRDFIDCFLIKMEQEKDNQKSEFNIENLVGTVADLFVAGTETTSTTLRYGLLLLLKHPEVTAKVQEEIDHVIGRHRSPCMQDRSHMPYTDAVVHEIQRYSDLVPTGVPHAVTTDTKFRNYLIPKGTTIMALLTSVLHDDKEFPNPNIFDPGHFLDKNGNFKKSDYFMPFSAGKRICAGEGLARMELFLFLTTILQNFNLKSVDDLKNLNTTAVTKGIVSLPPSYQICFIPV

CYP 2C9 = CYP 2C9 (Homo sapiens, UniProt P11712); experiment: CYP inhibition assay in human liver microsomes; assay type: in vitro ADME
Chain of CYP 2C9 (P11712 whole entry): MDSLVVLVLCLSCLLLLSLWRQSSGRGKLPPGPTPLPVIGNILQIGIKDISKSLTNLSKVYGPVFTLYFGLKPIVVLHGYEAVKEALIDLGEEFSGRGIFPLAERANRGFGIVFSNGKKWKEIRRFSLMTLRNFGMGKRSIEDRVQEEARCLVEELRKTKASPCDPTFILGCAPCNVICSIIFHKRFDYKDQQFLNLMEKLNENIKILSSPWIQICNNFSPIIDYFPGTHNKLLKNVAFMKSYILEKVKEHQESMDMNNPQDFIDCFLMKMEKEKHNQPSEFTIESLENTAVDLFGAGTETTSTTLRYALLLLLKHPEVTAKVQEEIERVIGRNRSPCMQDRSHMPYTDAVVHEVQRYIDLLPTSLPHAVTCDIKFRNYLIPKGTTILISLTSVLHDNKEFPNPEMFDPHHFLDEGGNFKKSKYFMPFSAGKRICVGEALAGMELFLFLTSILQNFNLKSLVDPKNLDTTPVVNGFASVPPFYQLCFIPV

CYP 2D6 = CYP 2D6 (Homo sapiens, UniProt P10635); experiment: CYP inhibition assay in human liver microsomes; assay type: in vitro ADME
Chain of CYP 2D6 (P10635 whole entry): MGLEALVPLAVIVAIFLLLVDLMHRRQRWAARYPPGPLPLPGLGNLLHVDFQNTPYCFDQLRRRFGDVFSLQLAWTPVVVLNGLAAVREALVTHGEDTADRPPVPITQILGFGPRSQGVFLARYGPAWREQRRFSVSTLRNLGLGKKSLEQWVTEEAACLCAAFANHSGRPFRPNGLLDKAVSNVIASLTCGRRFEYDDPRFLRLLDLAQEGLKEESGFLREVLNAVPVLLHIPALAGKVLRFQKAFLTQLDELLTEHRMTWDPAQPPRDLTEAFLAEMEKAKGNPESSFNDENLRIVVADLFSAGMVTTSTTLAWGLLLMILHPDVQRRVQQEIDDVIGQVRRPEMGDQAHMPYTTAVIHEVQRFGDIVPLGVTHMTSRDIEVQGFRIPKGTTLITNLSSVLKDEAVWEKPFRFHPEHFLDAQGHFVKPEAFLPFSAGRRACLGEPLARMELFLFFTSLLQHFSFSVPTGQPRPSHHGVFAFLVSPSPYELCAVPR

CYP 2E1 = CYP 2E1 (Homo sapiens, UniProt P05181); experiment: CYP inhibition assay in human liver microsomes; assay type: in vitro ADME
Chain of CYP 2E1 (P05181 whole entry): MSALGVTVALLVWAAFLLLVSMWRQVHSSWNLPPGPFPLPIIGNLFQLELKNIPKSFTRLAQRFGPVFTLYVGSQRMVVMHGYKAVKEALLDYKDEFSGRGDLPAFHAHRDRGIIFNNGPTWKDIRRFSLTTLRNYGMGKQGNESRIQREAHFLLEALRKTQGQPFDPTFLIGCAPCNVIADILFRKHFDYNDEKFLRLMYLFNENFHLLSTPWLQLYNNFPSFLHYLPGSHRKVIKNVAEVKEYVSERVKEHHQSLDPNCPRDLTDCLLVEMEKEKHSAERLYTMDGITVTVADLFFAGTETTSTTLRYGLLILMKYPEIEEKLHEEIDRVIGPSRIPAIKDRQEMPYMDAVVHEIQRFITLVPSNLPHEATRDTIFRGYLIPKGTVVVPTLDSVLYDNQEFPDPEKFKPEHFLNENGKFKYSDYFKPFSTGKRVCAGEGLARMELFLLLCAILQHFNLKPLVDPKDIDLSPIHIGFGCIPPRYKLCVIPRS

CYP3A4 = CYP3A4 (Homo sapiens, UniProt P08684); experiment: CYP inhibition assay in human liver microsomes; assay type: in vitro ADME; conditions: mean value given in text, HLM
Chain of CYP3A4 (P08684 2-503 limits assumed): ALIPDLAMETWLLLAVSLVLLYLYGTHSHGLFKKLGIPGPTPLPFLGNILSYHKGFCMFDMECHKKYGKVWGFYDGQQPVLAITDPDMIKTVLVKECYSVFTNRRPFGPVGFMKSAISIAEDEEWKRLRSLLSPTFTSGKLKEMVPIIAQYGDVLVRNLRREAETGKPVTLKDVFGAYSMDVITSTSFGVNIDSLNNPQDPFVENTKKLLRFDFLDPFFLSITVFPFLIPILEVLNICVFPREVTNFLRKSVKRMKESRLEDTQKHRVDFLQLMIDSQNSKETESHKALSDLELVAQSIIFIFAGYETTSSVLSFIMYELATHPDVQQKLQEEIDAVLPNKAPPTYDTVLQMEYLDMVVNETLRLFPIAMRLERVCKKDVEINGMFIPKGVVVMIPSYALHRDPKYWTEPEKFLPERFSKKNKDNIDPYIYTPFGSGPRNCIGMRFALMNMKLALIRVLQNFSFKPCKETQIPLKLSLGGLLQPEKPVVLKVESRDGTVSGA

[1] = Single-dose oral PK screening of Nos with dietary ingredients; assay type: in vivo, male CD-1 mice
Repeated-dose = assay type: in vivo, male CD-1 mice; conditions: for AUC(0-t): AUClast
[2] = Microsomal stability assay of Nos; assay type: in vitro ADME, CD-1 mouse; conditions: Noscapine 10 μM alone; n=2
[3] = Microsomal stability assay of Nos; assay type: in vitro ADME, Sprague-Dawley rat; conditions: Noscapine 10 μM alone; n=2
[4] = Microsomal stability assay of Nos; assay type: in vitro ADME, Beagle dog; conditions: Noscapine 10 μM alone; n=2
[5] = Microsomal stability assay of Nos; assay type: in vitro ADME, human; conditions: Noscapine 10 μM alone; n=2
[6] = Clinical chemistry parameters after 7 days oral dosing; assay type: in vivo, mice; conditions: hepatic and renal serum markers
[7] = cited from earlier work
UGT = experiment: In vitro UGT inhibition in mouse liver; conditions: UGT inhibition experiments, MLM and MIM, Figure 7
[8] = IC50 CYP 1A2, human liver microsomes, duplicate incubations, both values printed
[9] = IC50 CYP 2C8, human liver microsomes, duplicate incubations, both values printed
[10] = IC50 CYP 2C9, human liver microsomes, duplicate incubations, both values printed
[11] = male, CD-1, mouse, plasma, po, 50 mg/kg

For `COc1cc(CNC(=O)CCCC/C=C/C(C)C)ccc1O` [Cap, capsaicin], the IC50 (CYP 1A2; [8]) was 3.1 µM and 3.5 µM, the IC50 (CYP 1A2; mean IC50 CYP1A2, mean value given in text, HLM) was 3.3 µM and the IC50 (CYP 2A6) was over 100 µM. For the same compound, the IC50 (CYP 2B6) was 26 µM and 24 µM, the IC50 (CYP 2C8; [9]) was 6.3 µM and 5.9 µM and the IC50 (CYP 2C8; mean IC50 CYP2C8, mean value given in text, HLM) was 6.1 µM. The IC50 (CYP 2C9) was 3.7 µM, the IC50 (CYP 2C9; [10]) was 4.5 µM and the IC50 (CYP 2C9; mean IC50 CYP2C9, mean value given in text, HLM) was 4.1 µM. It also gave an IC50 (CYP 2D6) of 68 µM, an IC50 (CYP 2E1) of over 100 µM and an IC50 (CYP3A4; mean IC50 CYP3A4, midazolam as substrate) of 16 µM. It also gave an IC50 (CYP3A4; mean IC50 CYP3A4, testosterone as substrate) of 9.7 µM.

For `C=CCc1ccc(O)c(OC)c1` [Eu, eugenol], the “Tmax of Nos” value ([1]; Nos alone or co-dosed with the named dietary agent, single oral dose) was “remained unaffected”.

In the case of `COc1ccc2c(c1OC)C(=O)O[C@@H]2[C@H]1c2c(cc3c(c2OC)OCO3)CCN1C` [Nos, Noscapine], the AUC(0-t) [1, 11] is reported as 1920 ng·h/mL, the Tmax [1, 11] is reported as 4.8 min and the half-life [1, 11] is reported as under 60 min. For the same compound, the AUClast (Repeated-dose; Day 1, noscapine, oral gavage Nos 50 mg/kg bw, Cap/Pip 5 mg/kg bw, CD-1 mice) was 1023.76 ng·h/mL, the Cmax (Repeated-dose; Day 1, noscapine, oral gavage Nos 50 mg/kg bw, Cap/Pip 5 mg/kg bw, CD-1 mice, mean ± SD) was 3087.37 ± 1232.27 ng/mL and the AUClast (Repeated-dose; Day 7, noscapine, daily oral gavage Nos 50 mg/kg bw, Cap/Pip 5 mg/kg bw, CD-1 mice) was 507.74 ng·h/mL. The Cmax (Repeated-dose; Day 7, noscapine, daily oral gavage Nos 50 mg/kg bw, Cap/Pip 5 mg/kg bw, CD-1 mice, mean ± SD) was 684.04 ± 31.77 ng/mL, the Tmax at 1 day (Repeated-dose; [11]) was 10.2 min and the Tmax at 7 days (Repeated-dose; [11]) was 15 min. The AUC(0-t) (Repeated-dose; male, CD-1, mouse, plasma, po, 50 mg/kg, Day 1, noscapine, oral gavage Nos 50 mg/kg bw, Cap/Pip 5 mg/kg bw, CD-1 mice) was 1020 ng·h/mL, the AUC(0-t) (Repeated-dose; male, CD-1, mouse, plasma, po, 50 mg/kg, Day 7, noscapine, daily oral gavage Nos 50 mg/kg bw, Cap/Pip 5 mg/kg bw, CD-1 mice) was 508 ng·h/mL and the Cmax at 1 day (Repeated-dose; male, CD-1, mouse, plasma, po, 50 mg/kg, Cmax, Day 1, noscapine, oral gavage Nos 50 mg/kg bw, Cap/Pip 5 mg/kg bw, CD-1 mice, mean ± SD) was 3090 ng/mL. For the same compound, the Cmax at 7 days (Repeated-dose; male, CD-1, mouse, plasma, po, 50 mg/kg, Cmax, Day 7, noscapine, daily oral gavage Nos 50 mg/kg bw, Cap/Pip 5 mg/kg bw, CD-1 mice, mean ± SD) was 684 ng/mL, the “decrease in exposure of Nos on day 7 compared to day 1” value (Repeated-dose; repeated oral dosing for seven days) was “half” and the IC50 (CYP 1A2; [8]) was over 100 µM. The IC50 (CYP 2A6) was over 100 µM, the IC50 (CYP 2B6) was over 100 µM and the IC50 (CYP 2C8; [9]) was 10 µM and 8.4 µM. For the same compound, the IC50 (CYP 2C9; [10]) was 18 µM and 24 µM, the IC50 (CYP 2D6) was over 100 µM and the IC50 (CYP 2E1) was over 100 µM. The “Intrinsic Clearance MLM” value [2] was 6.4 mL/min/g liver, the “Intrinsic Clearance RLM” value [3] was 4.0 mL/min/g liver and the “Intrinsic Clearance DLM” value [4] was 1.9 mL/min/g liver. The “Intrinsic Clearance HLM” value [5] was 1.8 mL/min/g liver, the “clinical chemistry parameters vs vehicle-treated mice” value [6] was “did not affect” and the bioavailability ([7]; mice, ref Aneja et al., 2007) was “around 32%”. For the same compound, the Oral bioavailability ([7]; mouse, reported, no reference given) was 30% and the half-life ([7]; ref Aneja et al., 2007) was under 120 min.

With `O=C(/C=C/C=C/c1ccc2c(c1)OCO2)N1CCCCC1` [Pip, piperine] the IC50 (CYP 1A2; [8]) was 35 µM and 38 µM, the IC50 (CYP 2A6) was over 100 µM and the IC50 (CYP 2B6) was 87 µM and 90 µM. For the same compound, the IC50 (CYP 2C8; [9]) was 84 µM and 78 µM, the IC50 (CYP 2C9) was 54 µM and the IC50 (CYP 2D6) was over 100 µM. The IC50 (CYP 2E1) was over 100 µM and the “inhibitory effect on the rate of metabolism of Nos” value (UGT) was “did not reveal significant inhibitory effects”.
